Here are results for three compounds from patent US20200181284A1, “EPIGENETIC INHIBITORS FOR SENSITIZING HEMATOLOGIC OR OTHER MALIGNANCIES TO GLUCOCORTICOID THERAPY” (UNIVERSITY OF SOUTHERN CALIFORNIA, priority 2017, published 2020).

Experiment [1] has as its system G9a and GLP coactivator function with GR. Briefly: Transient MMTV-LUC luciferase reporter gene assay in CV-1 cells (GR, GRIP1, G9a or GLP). Type of experiment: cell-based, human. Here is the method:
CV-1 cells were plated in hormone-free medium with 5% charcoal-stripped serum in 24-well plates the day before transfection. Cells were transfected using Lipofectamine 2000 (Invitrogen) with the indicated plasmids according to the manufacturer's protocol. After transfection, the cells were grown in hormone-free medium for 48 h in the presence or absence of 100 nM dex. Cell lysis and luciferase assays on cell extracts were performed with Promega luciferase assay kit. An aliquot of the cell lysate was reserved for immunoblot analysis of input samples. The results were normalized as indicated and presented as the mean±SEM of at least four independent experiments.
The results as shown in FIGS. 20A-20D generally highlight that G9a and GLP PTMs regulate their coactivator function. For FIG. 20A, CV-1 cells were transfected with MMTV-LUC reporter plasmid (200 ng) and plasmids encoding GR (1 ng), Grip1 (100 ng) and HA-labeled full length (FL) hG9a wild type or K185A or K185R mutants (150 or 400 ng) as indicated. Cells were grown with 100 nM dex or the equivalent amount of ethanol for 48 h and assayed for luciferase activity. Relative luciferase units are normalized to sample 3 and represent mean±SEM for eight independent experiments. p-value was calculated using a paired t-test. *p≤0.05, **p≤0.01. Whole-cell extracts were analyzed for G9a expression by immunoblot with anti-HA antibody. For FIG. 20B, transient reporter gene assays were performed as in A with HA-labeled hGLP WT or hGLP K205A (150 or 400 ng) as indicated. Relative luciferase units are normalized to sample 3 and represent mean±SEM for six independent experiments. p-value was calculated using a paired t-test. *p≤0.05. […] Relative luciferase units are normalized to sample 3 and represent mean±SEM for four independent experiments. p-value was calculated using a paired t-test. * * *p≤0.001. […] Relative luciferase units are normalized to sample 3 and represent mean±SEM for four independent experiments. p-value was calculated using a paired t-test. *p≤0.05. […]

The next experiment relates to GR-HP1γ interaction. The experiment in a line: Proximity ligation assay of GR and HP1γ in A549 cells. Type of experiment: cell-based, human. Here is the method: The experiments were performed following the manufacturer's instructions as previously described. Cells were grown on coverslips in 12-well plates, fixed in methanol for 2 min, and then washed twice in PBS. Firstly, the samples were saturated using the blocking solution, then different pairs of primary antibodies (HP1γ (Abcam ab10480) and GR (Santa Cruz sc-393232) in order to analyze HP1γ-GR, G9a (Sigma G6919) and HP1γ (Abcam ab56978) in order to analyze HP1γ-G9a interaction and HA-Tag (6E2) (Cell signaling #2367) and HP1γ (Abcam ab10480) in order to analyze HA- HP1γ interaction) were incubated with the fixed cells for 1 h at 37° C. […] Afterwards, the samples were mounted with Duolink II Mounting Medium containing Dapi in order to counterstain nuclei, and then analyzed on Zeiss Imager.Z1 fluorescence microscope. For each sample interactions were counted for 1000 cells using Image J software [46b].
The results as shown in FIGS. 18A-18E generally highlight that G9a and GLP methylation is required for HP1γ-G9a/GLP-GR ternary complex formation. […] The detected interactions are indicated by red dots. […] The number of interactions detected by Image J analysis is shown as the mean±SEM of three independent experiments. p-value was determined using a paired t-test. **p≤0.01. […] Whole-cell extracts were analyzed for G9a, GLP, GR, HP1γ and β-actin expression by immunoblot. […]

As for `COc1cc2c(Nc3ccc(NC(=O)c4ccccc4)cc3)ncnc2cc1OCCCN1CCOCC1` [ZM447439, N-[4-[[6-methoxy-7-(3-morpholin-4-ylpropoxy)quinazolin-4-yl]amino]phenyl]benzamide], in experiment [1] (100 nM dex and 2 μM ZM447439, 48 h), the “coactivator function of G9a and GLP, in cooperation with GRIP1” value was “significantly enhanced”. As for `COc1cc2c(NC3CCN(C4CCCCC4)CC3)nc(N3CCCN(C(C)C)CC3)nc2cc1OCCCN1CCCCC1` [UNC0646], the “GR-HP1γ interaction in PLA” value in the experiment with GR-HP1γ interaction (A549 cells, 2 μM UNC0646 24 h, 100 nM dex for the final 2 h) is reported as “strongly decreased”.

Consider `Clc1ccc(N/N=C(\c2ccccc2)c2ccccn2)nc1` [JIB-04, 5-chloro-N-[(E)-[phenyl(pyridin-2-yl)methylidene]amino]pyridin-2-amine], for which the “dex-induced expression of the reporter gene” value in experiment [1] (GR, GRIP1 and wild type G9a) is “enhanced”; in experiment [1] (mutant G9a with the methylation site mutated from lysine to arginine), “no effect”. In addition, the “dex-induced interaction between GR and HP1γ in PLA” value in the experiment with GR-HP1γ interaction (A549 cells treated with dex and JIB-04) was “enhanced”.
